Experimental data taken from patent publication US20230115176A1 (Ra Pharmaceuticals, Inc., priority 2019, published 2023).
pIC50: −log10 of the molar value.

These molecules were tested against T1, Human C5 (Homo sapiens, UniProt P01031) (assay: Red blood cell (RBC) hemolysis assay, luminescent (Example 28, Table 32)). Conditions: sheep EA cells, 1.5% C5-depleted human serum, 0.5 nM human C5, 1 hour at 37° C., luminescence (Table 32).
T1 construct: purchased Complement Technology
Type: cell-based
Description: Sheep red blood cells coated with rabbit anti-sheep erythrocyte antiserum (EA cells; Complement Technology, Tyler, Tex.) were used to assay compound inhibitory activity of the classical complement activation pathway. Briefly, the EA cells were washed once and resuspended in the same volume of GVB++ buffer (Complement Technology, Tyler, Tex.). 25 μL of EA cells were then distributed into each well of 384-well tissue culture plates using Apricot iPipette Pro (Apricot Designs; Covina, Calif.). Compounds were tested in 10 points of final concentrations ranging from 16.67 μM to 1.65 μM in a 6-fold titration series. Compounds were dispensed into 384-well plates from 6.7 mM and 3.35 μM DMSO working stocks using an HP Digital Dispenser (HP; Corvallis, Oreg.). The reactions also contained 1.5% (v/v) C5-depleted human serum (Complement Technology). Hemolysis was induced by addition of human C5 (Complement Technology) at a concentration of 0.5 nM and plates were incubated for 1 hour at 37° C. in a cell culture incubator. The extent of hemolysis was measured by ability of released hemoglobin to catalyze luminol in the presence of hydrogen peroxide. Luminescence was then measured using a plate reader. Luminescence measurements were used to prepare a dose-response curve. From the curve, the half maximal inhibitory concentration (IC50) for each compound was determined, where the IC50 represents the concentration of each compound needed to reduce red blood cell hemolysis by half.

T1 sequence (P01031 19-1676): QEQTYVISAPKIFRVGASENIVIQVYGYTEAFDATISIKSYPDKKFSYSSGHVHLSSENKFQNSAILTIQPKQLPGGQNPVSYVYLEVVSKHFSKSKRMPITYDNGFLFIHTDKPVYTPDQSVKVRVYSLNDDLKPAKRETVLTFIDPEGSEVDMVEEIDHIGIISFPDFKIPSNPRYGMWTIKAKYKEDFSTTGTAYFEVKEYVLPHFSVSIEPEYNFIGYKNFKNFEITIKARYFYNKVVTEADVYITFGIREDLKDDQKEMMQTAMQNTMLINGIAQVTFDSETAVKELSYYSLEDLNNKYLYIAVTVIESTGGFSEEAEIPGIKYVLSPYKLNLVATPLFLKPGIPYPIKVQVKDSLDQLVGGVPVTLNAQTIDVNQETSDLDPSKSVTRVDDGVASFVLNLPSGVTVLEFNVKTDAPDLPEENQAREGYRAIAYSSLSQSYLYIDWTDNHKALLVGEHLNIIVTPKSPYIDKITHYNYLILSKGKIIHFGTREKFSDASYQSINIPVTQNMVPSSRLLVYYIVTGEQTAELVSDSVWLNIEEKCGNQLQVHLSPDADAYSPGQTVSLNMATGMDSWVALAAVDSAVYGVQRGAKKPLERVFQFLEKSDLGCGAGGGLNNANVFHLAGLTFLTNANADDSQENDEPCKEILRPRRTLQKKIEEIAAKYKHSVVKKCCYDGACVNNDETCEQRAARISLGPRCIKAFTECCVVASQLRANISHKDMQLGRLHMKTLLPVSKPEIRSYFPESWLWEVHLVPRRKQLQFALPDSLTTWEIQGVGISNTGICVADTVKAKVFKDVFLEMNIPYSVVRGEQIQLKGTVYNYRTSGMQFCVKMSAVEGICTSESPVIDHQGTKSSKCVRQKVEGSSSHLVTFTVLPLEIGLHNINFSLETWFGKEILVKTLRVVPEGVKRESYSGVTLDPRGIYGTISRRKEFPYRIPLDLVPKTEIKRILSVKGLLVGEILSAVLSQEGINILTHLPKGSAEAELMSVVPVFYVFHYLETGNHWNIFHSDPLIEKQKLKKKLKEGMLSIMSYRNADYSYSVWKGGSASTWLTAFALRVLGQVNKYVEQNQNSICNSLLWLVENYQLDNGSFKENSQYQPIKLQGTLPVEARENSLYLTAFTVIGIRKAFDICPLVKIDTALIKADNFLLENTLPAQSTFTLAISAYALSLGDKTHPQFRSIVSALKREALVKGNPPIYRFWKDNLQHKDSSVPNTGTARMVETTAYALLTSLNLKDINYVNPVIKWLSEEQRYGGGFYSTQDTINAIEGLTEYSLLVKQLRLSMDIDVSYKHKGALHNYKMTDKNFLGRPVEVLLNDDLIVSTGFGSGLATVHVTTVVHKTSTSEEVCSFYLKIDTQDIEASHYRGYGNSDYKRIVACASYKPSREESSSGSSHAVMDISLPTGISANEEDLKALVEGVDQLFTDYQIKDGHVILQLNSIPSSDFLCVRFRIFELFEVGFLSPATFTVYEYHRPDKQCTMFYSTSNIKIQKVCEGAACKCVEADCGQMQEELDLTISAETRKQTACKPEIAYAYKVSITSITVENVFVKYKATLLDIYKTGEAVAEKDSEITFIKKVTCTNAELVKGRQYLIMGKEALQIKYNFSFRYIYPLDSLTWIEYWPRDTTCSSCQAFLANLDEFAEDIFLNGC

Compound	pIC50
COc1cc(CC(=O)N(C)[C@H]2CCN(C(=O)OC(C)(C)C)C2)ccc1CN1C(=O)N(c2ccc(OC)c(OCCCC3CC3)c2)CC[C@@H]1C [SC0188]	8.19
CCCCCOc1cc(N2C[C@@H](C)CN(Cc3ccc(CC(=O)N4CCOCC4)cc3OC)C2=O)ccc1OC [SC0201]	8.00
CCCCCOc1cc(N2C[C@@H](C(N)=O)CN(Cc3cc(F)ccc3OC)C2=O)ccc1OC [SC0213]	7.74
CCCCCOc1cc(N2CC(CO)CN(Cc3ccc(CC(=O)O)cc3OC)C2=O)ccc1OC (stereo not shown) [SC0222]	7.13
CCCCCOc1cc(N2CC[C@@H](C)N(Cc3cccc4c3ccn4CC(=O)OCC)C2=O)ccc1OC [SC0211]	7.81
CCCCCOc1cc(N2CC(C(N)=O)CN(Cc3ccc(CNC(C)=O)cc3OC)C2=O)ccc1OC (stereo not shown) [SC0199]	8.01
COc1cc(CC(=O)N[C@H]2CNC[C@H]2F)ccc1CN1C(=O)N(c2ccc(OC)c(OCCCC3CC3)c2)CC[C@@H]1C [SC0152]	8.64
COc1cc(CC(=O)N[C@@H]2CCN(C(=O)OC(C)(C)C)C2)ccc1CN1C(=O)N(c2ccc(OC)c(OCCCC3CC3)c2)CC[C@@H]1C [SC0187]	8.21
COc1ccc(N2CC[C@H](C)N(Cc3cccc4c3ccn4S(=O)(=O)c3ccc(C)cc3)C2=O)cc1OCCCC1CC1 [SC0225]	6.96
CCCCCOc1cc(N2CC[C@H](C)N(Cc3ccnc4c3c(Cl)cn4CC(=O)N[C@H]3CCNC3)C2=O)ccc1OC [SC0143]	8.68
CCCCCOc1cc(N2C[C@@H](CO)CN(Cc3ccc(CC(=O)N(C)C)cc3OC)C2=O)ccc1OC [SC0206]	7.93
COc1ccc(N2CC[C@H](C)N(Cc3cccc4c3c(Cl)cn4CC(=O)N(C)C)C2=O)cc1OCCCCC1CC1 [SC0145]	8.68
CCCCCOc1cc(N2CC[C@H](C)N(Cc3ccnc4c3c(Cl)cn4CC(=O)N(C)OC)C2=O)ccc1OC [SC0124]	8.80
CCCCCOc1cc(N2C[C@H](CO)CN(Cc3ccc(CC(=O)N(C)C)cc3OC)C2=O)ccc1OC [SC0176]	8.35
CCCCCOc1cc(N2CC[C@H](C)N(Cc3cccc4c3c(Cl)c(C)n4CC(=O)N(C)C)C2=O)ccc1OC [SC0132]	8.77
CCCCCOc1cc(N2CC(C)(C)CN(Cc3ccc(CC(=O)N(C)C)cc3OC)C2=O)ccc1OC [SC0220]	7.38
CCCCCOc1cc(N2CC[C@H](C)N(Cc3ccnc4c3c(Cl)cn4CCOCCOC)C2=O)ccc1OC [SC0150]	8.66
CCCCCOc1cc(N2CC[C@@H](C)NC2=O)ccc1OC [SC0231]	5.58
COc1cc(CCN2CCOCC2)ccc1CN1C(=O)N(c2ccc(OC)c(OCCCC3CC3)c2)CC[C@@H]1C [SC0182]	8.28
CCCCCOc1cc(N2CC[C@H](C)N(Cc3cccc(OC)c3O)C2=O)ccc1OC [SC0195]	8.07
CCCCCOc1cc(N2CC(COCc3ccccc3)CN(Cc3ccc(CC(=O)O)cc3OC)C2=O)ccc1OC (stereo not shown) [SC0229]	6.43
CCCCCOc1cc(N2CC[C@H](C)N(Cc3cccc4c3c(Cl)c(Cl)n4CC(=O)N(C)C)C2=O)ccc1OC [SC0181]	8.29
CCCCCOc1cc(N2C[C@@H](C)CN(Cc3ccc(CC(=O)N(C)C)cc3OC)C2=O)ccc1OC [SC0210]	7.82
COc1cc(CC(=O)N[C@@H]2CN(C(=O)OC(C)(C)C)C[C@@H]2F)ccc1CN1C(=O)N(c2ccc(OC)c(OCCCC3CC3)c2)CC[C@@H]1C [SC0185]	8.24
COc1cc(CC(=O)N2CCNC(=O)C2)ccc1CN1C(=O)N(c2ccc(OC)c(OCCCC3CC3)c2)CC[C@@H]1C [SC0118]	8.85

Compound	pIC50
CCCCCOc1cc(N2CC(C)CN(Cc3ccc(C#N)cc3OC)C2=O)ccc1OC (stereo not shown) [SC0228]	6.68
CCCCCOc1cc(N2CC[C@@H](C)N(Cc3cccc4c3ccn4S(=O)(=O)c3ccc(C)cc3)C2=O)ccc1OC [SC0230]	6.15
COc1cc(CC(=O)N[C@H]2CN(C(=O)OC(C)(C)C)C[C@H]2F)ccc1CN1C(=O)N(c2ccc(OC)c(OCCCC3CC3)c2)CC[C@@H]1C [SC0160]	8.57
COc1cc(Cc2cnccn2)ccc1CN1C(=O)N(c2ccc(OC)c(OCCCC3CC3)c2)CC[C@@H]1C [SC0138]	8.74
CCCCCOc1cc(N2C[C@@H](C)CN(Cc3ccc(CC(=O)N4CCCC4)cc3OC)C2=O)ccc1OC [SC0212]	7.78
COc1cc(CC(=O)N(C)[C@@H]2CCNC2)ccc1CN1C(=O)N(c2ccc(OC)c(OCCCC3CC3)c2)CC[C@@H]1C [SC0121]	8.82
COc1cc(CC(=O)O)ccc1CN1CC(C)CN(c2ccc(OC)c(OCCCC3CC3)c2)C1=O (stereo not shown) [SC0221]	7.26
CCCCCOc1cc(N2C[C@H](C)CN(Cc3ccc(CC(=O)N(C)C)cc3OC)C2=O)ccc1OC [SC0209]	7.90
CCCCCOc1cc(N2C[C@H](C(N)=O)CN(Cc3cc(F)ccc3OC)C2=O)ccc1OC [SC0215]	7.73
COc1cc(CC(=O)N(C)C)ccc1CN1C(=O)N(c2ccc(OC)c(OCCCC3CC3)c2)CC[C@@H]1C [SC0135]	8.74
COc1cc(CC(=O)N2CCOCC2)ccc1CN1C(=O)N(c2ccc(OC)c(OCCCC3CC3)c2)CC[C@@H]1C [SC0139]	8.72
CCCCCOc1cc(N2CC[C@H](C)N(Cc3cccc4c3cc(C)n4CC(=O)N(C)C)C2=O)ccc1OC [SC0218]	7.46
COc1cc(CC(=O)N2CC[C@@H](N(C)C)C2)ccc1CN1C(=O)N(c2ccc(OC)c(OCCCC3CC3)c2)CC[C@@H]1C [SC0140]	8.68
COc1cc(CC(=O)N[C@@H]2CNC[C@@H]2F)ccc1CN1C(=O)N(c2ccc(OC)c(OCCCC3CC3)c2)CC[C@@H]1C [SC0130]	8.77
CCN1CC[C@@H](NC(=O)Cc2ccc(CN3C(=O)N(c4ccc(OC)c(OCCCC5CC5)c4)CC[C@@H]3C)c(OC)c2)C1 [SC0126]	8.80
CCCCCOc1cc(N2CC(C)CN(Cc3ccc(CNC(=O)OC)cc3OC)C2=O)ccc1OC (stereo not shown) [SC0200]	8.00
CCCCCOc1cc(N2CC[C@H](C)N(Cc3ccnc4c3c(Cl)cn4CC(=O)N(C)C)C2=O)c(F)cc1OC [SC0175]	8.36
COc1cc(CC(=O)N(C)C)ccc1CN1CC(C)CN(c2ccc(OC)c(OCCCC3CC3)c2)C1=O (stereo not shown) [SC0194]	8.07
COc1cc(CC(=O)O)ccc1CN1C(=O)N(c2ccc(OC)c(OCCCC3CC3)c2)CC[C@@H]1C [SC0192]	8.11
COc1cc(CC(=O)N[C@H]2CCN(C(=O)OC(C)(C)C)C2)ccc1CN1C(=O)N(c2ccc(OC)c(OCCCC3CC3)c2)CC[C@@H]1C [SC0216]	7.71
CCN1CC[C@H](NC(=O)Cc2ccc(CN3C(=O)N(c4ccc(OC)c(OCCCC5CC5)c4)CC[C@@H]3C)c(OC)c2)C1 [SC0141]	8.68
C=C1CN(Cc2ccc(C#N)cc2OC)C(=O)N(c2ccc(OC)c(OCCCCC)c2)C1 [SC0226]	6.88
COc1cc(CC(=O)N2CCCC2)ccc1CN1CC(C)CN(c2ccc(OC)c(OCCCC3CC3)c2)C1=O (stereo not shown) [SC0191]	8.14
COc1cc(CC(=O)N[C@@H]2CN(CCO)C[C@@H]2F)ccc1CN1C(=O)N(c2ccc(OC)c(OCCCC3CC3)c2)CC[C@@H]1C [SC0136]	8.74
CCCCCOc1cc(N2C[C@H](C)CN(Cc3ccc(CC(=O)N4CCCC4)cc3OC)C2=O)ccc1OC [SC0207]	7.93

Compound	pIC50
COc1cc(CCN2CC3(COC3)C2)ccc1CN1C(=O)N(c2ccc(OC)c(OCCCC3CC3)c2)CC[C@@H]1C [SC0196]	8.07
COc1ccc(N2CC[C@H](C)N(Cc3cccc4c3ccn4CC(=O)N(C)C)C2=O)cc1OCCCCC1CC1 [SC0203]	7.99
COc1cc(CCO)ccc1CN1C(=O)N(c2ccc(OC)c(OCCCC3CC3)c2)CC[C@@H]1C [SC0180]	8.31
CCCCCOc1cc(N2CC[C@@H](C)N(Cc3cccc4[nH]ccc34)C2=O)ccc1OC [SC0214]	7.74
COc1cc(CC(=O)N2CCOC(CN(C)C)C2)ccc1CN1C(=O)N(c2ccc(OC)c(OCCCC3CC3)c2)CC[C@@H]1C (stereo partly shown) [SC0142]	8.68
CCCCCOc1cc(N2CC(CO)CN(Cc3ccc(CNC(C)=O)cc3OC)C2=O)ccc1OC (stereo not shown) [SC0189]	8.15
CCCCCOc1cc(N2CC[C@H](C)N(Cc3ccc(CC(=O)N(C)C)cc3OC)C2=O)ccc1OC [SC0173]	8.38
CCCCCOc1cc(N2CC[C@H](C)N(Cc3ccnc4c3c(Cl)cn4CC(=O)N3CC(O)(C(F)(F)F)C3)C2=O)ccc1OC [SC0133]	8.77
COc1cc(Cc2ncccn2)ccc1CN1C(=O)N(c2ccc(OC)c(OCCCC3CC3)c2)CC[C@@H]1C [SC0157]	8.59
COc1cc(CC(=O)N(C)[C@H]2CCNC2)ccc1CN1C(=O)N(c2ccc(OC)c(OCCCC3CC3)c2)CC[C@@H]1C [SC0161]	8.55
CCCCCOc1cc(N2CC(C)CN(Cc3ccc(CNC(C)=O)cc3OC)C2=O)ccc1OC (stereo not shown) [SC0198]	8.01
CCCCCOc1cc(N2CC[C@H](C)N(Cc3ccc(CC(=O)N4CCOC(CN(C)C)C4)cc3OC)C2=O)ccc1OC (stereo partly shown) [SC0153]	8.64
CCCCCOc1cc(N2CC[C@H](C)N(Cc3ccnc4[nH]ccc34)C2=O)ccc1OC [SC0219]	7.40
CCCCCOc1cc(N2CC[C@H](C)N(Cc3ccnc4c3c(Cl)cn4C3COC3)C2=O)ccc1OC [SC0151]	8.66
COc1ccc(N2CC[C@H](C)N(Cc3ccnc4c3ccn4CC(=O)N(C)C)C2=O)cc1OCCCC1CC1 [SC0208]	7.90
COc1ccc(N2CC[C@H](C)N(Cc3cccc4c3ccn4CC(=O)N(C)C)C2=O)cc1OCCCC1CCC1 [SC0205]	7.94
CCCCCOc1cc(N2CC[C@@H](C)N(Cc3cccc4c3ccn4CC(=O)O)C2=O)ccc1OC [SC0227]	6.87
CCCCCOc1cc(N2CC[C@H](C)N(Cc3ccnc4c3c(Cl)cn4CCOCCOCCOC)C2=O)ccc1OC [SC0131]	8.77
CCCCCOc1cc(N2CC[C@H](C)N(Cc3ccc(CCO)cc3OC)C2=O)ccc1OC [SC0197]	8.04
CCCCCOc1cc(N2CC(CO)CN(Cc3ccc(C#N)cc3OC)C2=O)ccc1OC (stereo not shown) [SC0224]	7.01
COc1cc(CC(=O)N(C)[C@H]2CCN(CCF)C2)ccc1CN1C(=O)N(c2ccc(OC)c(OCCCC3CC3)c2)CC[C@@H]1C [SC0165]	8.52
CCCCCOc1cc(N2C[C@@H](C(=O)NC)CN(Cc3cc(F)ccc3OC)C2=O)ccc1OC [SC0223]	7.01
CCCCCOc1cc(N2CC(COCc3ccccc3)CN(Cc3ccc(Br)cc3OC)C2=O)ccc1OC (stereo not shown) [SC0232]	5.51
